Here are results for eight molecules from BindingDB's records for doi:10.1021/ml4000595 (Temple University, 2013).

The target in data set [1] is T1, Cytochrome P450 11B1, mitochondrial (Homo sapiens, UniProt P15538).
T1 sequence (P15538 whole entry): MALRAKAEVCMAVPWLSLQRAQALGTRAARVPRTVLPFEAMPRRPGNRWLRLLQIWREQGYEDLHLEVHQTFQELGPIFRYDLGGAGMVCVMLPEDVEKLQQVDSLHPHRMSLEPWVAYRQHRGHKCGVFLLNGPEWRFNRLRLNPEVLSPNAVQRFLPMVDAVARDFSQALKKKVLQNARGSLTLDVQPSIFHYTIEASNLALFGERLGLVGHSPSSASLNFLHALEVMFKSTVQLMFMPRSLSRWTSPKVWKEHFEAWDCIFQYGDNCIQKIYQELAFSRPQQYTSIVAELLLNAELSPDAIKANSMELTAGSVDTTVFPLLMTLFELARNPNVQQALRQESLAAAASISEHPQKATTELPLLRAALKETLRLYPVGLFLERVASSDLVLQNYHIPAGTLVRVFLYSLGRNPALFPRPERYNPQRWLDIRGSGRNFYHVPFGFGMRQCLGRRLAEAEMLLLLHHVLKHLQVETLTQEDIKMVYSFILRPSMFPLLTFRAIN
In words: Inhibition of human CYP11B1 expressed in hamster V79MZ cells using [1,2-3H]11-deoxycorticosterone as substrate preincubated for 60 mins prior to substrate addition measured after 25 mins by HPLC analysis.

In data set [2] the target is T2, Cytochrome P450 11B2, mitochondrial (Homo sapiens, UniProt P19099).
T2 sequence (P19099 whole entry): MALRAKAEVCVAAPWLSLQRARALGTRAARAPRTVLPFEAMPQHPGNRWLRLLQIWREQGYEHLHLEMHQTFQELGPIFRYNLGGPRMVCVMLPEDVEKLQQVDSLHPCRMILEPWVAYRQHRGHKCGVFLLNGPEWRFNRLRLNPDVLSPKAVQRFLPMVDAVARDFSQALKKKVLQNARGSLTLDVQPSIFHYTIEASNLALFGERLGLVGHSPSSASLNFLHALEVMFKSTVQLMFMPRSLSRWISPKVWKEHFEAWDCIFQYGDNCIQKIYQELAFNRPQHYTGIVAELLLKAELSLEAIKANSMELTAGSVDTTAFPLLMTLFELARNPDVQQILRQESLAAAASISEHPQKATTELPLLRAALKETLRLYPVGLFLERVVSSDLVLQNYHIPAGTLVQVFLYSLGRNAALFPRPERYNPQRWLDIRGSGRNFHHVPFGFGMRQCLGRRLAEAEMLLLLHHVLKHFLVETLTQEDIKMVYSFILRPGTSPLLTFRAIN
Description: Inhibition of human CYP11B2 expressed in hamster V79MZ cells using [1,2-3H]11-deoxycorticosterone as substrate preincubated for 60 mins prior to substrate addition measured after 50 mins by HPLC analysis.

SMILES strings stand for the structures.

For orientation: IC50 means the midpoint of a concentration-inhibition curve.

Consider `c1ccc2c(-c3ccc(Cn4ccnc4)cn3)cccc2c1`, for which the IC50 stood at 42 nM in data set [1] and 2080 nM in data set [2].

Consider `c1csc(-c2ncccc2Cn2ccnc2)c1`, for which the IC50 in data set [1] was found to be 16 nM; in data set [2], 251 nM.

For `c1ccc2c(-c3ccc(Cn4ccnc4)cn3)csc2c1`, the IC50 came to 40 nM in data set [1] and 1160 nM in data set [2].

Regarding `Oc1ccc(-c2ccc(Cn3ccnc3)cn2)cc1F`, the IC50 in data set [1] was determined as 17 nM; in data set [2], 237 nM.

As for `Brc1ncccc1Cn1ccnc1`, the IC50 is 61 nM in data set [1] and 911 nM in data set [2].

`Nc1ccccc1-c1ccc(Cn2ccnc2)cn1`: the IC50 in data set [1] stood at 101 nM; in data set [2], 2110 nM.

For `Nc1cccc(-c2ccc(Cn3ccnc3)cn2)c1`, the figures for the 50% inhibitory concentration (IC50) in data set [1] and in data set [2] were 110 nM and 3410 nM, respectively.

`Nc1ccc(-c2ccc(Cn3ccnc3)cn2)cc1`: the IC50 is 106 nM in data set [1] and 528 nM in data set [2].
